Structures are written as SMILES. Entries after “also recorded” stand apart in the source; their conditions may differ.

One may read the Ki as the dissociation constant of the complex between target and ligand, obtained from inhibition or displacement. Usually Kd stands for the concentration at which binding is half-saturated. As a reminder, the EC50 is the concentration needed to bring the measured effect to its halfway point.

Assay [1] concerns the target HSP90. The note with it: cited from earlier work.
The target in assay [2] is T1, C. albicans HSP90–Sba1 binding (Candida albicans, UniProt P46598).
T1 construct: made in house; host or cells: E. coli BL21(DE3)
T1 sequence (P46598 whole entry): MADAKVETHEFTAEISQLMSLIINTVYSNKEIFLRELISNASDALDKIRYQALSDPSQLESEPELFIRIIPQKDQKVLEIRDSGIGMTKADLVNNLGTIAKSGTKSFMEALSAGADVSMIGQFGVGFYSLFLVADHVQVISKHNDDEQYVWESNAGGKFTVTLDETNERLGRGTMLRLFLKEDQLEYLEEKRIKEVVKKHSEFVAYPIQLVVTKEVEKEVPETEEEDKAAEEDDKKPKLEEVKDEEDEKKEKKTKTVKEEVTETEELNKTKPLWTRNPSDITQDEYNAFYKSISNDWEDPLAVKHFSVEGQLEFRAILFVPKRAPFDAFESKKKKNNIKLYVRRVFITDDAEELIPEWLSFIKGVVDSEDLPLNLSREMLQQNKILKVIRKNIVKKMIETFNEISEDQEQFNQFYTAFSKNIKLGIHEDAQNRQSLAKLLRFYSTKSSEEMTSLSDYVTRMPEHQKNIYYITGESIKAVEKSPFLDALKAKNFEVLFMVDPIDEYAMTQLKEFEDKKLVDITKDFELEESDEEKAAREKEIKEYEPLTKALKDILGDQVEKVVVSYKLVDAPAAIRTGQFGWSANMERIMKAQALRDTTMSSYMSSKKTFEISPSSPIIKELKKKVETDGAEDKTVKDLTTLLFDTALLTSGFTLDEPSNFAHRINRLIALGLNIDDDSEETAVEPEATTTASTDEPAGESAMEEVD
Description: FRET inhibitor screening assay, C. albicans HSP90-Sba1 binding. The note with it: 10 or 100 µM (Sba1 20 µM), triplicates, 3 mM ATP, 1% DMSO, 15 min 30 °C. An excerpt:
We used the Z′ factor (Z′) to optimize the FRET assays for screening purposes. Z′ represents a simple statistical parameter for the quality assessment and optimization of HTS assays and screening assays in general. It is a measure that determines the degree of signal separation between binding and non-binding data sets. Calculation of the Z′ factor is based on the standard deviation of the individual data sets as well as their general signal separation. Values ≥ 0.5 can be classified as excellent for screening purposes. […] When the fluorescent fusion proteins of HSP90 and co-chaperones bind to each other, FRET occurs between donor and acceptor fluorophores, and the sensitized emission (EmFRET) signal increases. Consequently, the fluorescence intensity of the donor decreases (FLDD). […] To obtain an informative Z′ value, we calculated it based on at least three independent experiments amounting to 144 samples for both binding and non-binding control data sets (Figure 4B,E). […] We defined the ‘hit threshold’ as a decrease in readout signal of more than 3 standard deviations (SDs) from the mean signal of the binding control. This constitutes a common threshold for hit identification in HTS campaigns.
(§1) FRET experiments were carried out in 384-well microtiter plates (Art. No. 3766 Corning, NY, USA, or Art. No. 781906, Greiner Bio-One GmbH, Frickenhausen, Germany) containing a final volume of 20 µL and measured with a microplate reader Infinite M200Pro (Tecan, Männedorf, Switzerland). The fluorescence was measured in three channels: excitation (ex.): 488 nm/emission (em.): 525 nm (mNeonGreen fluorescence), ex.: 561 nm/em.: 610 nm (mScarlet-I fluorescence) and the FRET channel ex.: 488 nm/em.: 610 nm. The excitation and emission bandwidths were set to 9 and 20 nm, respectively. Experiments for the determination of the equilibrium dissociation constants were performed with a filter-based microplate reader Infinite F200Pro (Tecan, Männedorf, Switzerland). The fluorescence was measured in three channels using the following filters: ex.: 485 ± 20 nm/em.: 535 ± 20 nm (mNeonGreen channel), ex.: 535 ± 20 nm/em.: 612 ± 10 nm (mScarlet-I channel) and the FRET channel ex.: 485 ± 20 nm/em.: 612 ± 10 nm. FRET emission (EmFRET) was calculated according to Song et al. 2011 [81]:(1) EmFRET=FLDA−x×FLDD−(y×FLAA) where FLDA is the fluorescence signal of the FRET channel and FLDD and FLAA are fluorescence signals from the mNeonGreen and mScarlet-I channels, respectively. The correction factors x and y were calculated as follows:(2) x=FLDA/FLDD for samples containing only the donor fluorophore or fluorescent fusion proteins with mNeonGreen and (3) y=FLDA/FLAA for samples containing only the acceptor fluorophore or fluorescent fusion proteins with mScarlet-I in the same concentration as samples containing both the donor and acceptor.
For screening for the identification of ATP-competitive C. albicans HSP90 and HSP90-Sba1 binding inhibitors, 10 µL of HSP90-mNeonGreen ([…]) in HEPES buffer (40 mM HEPES/KOH pH 7.5, 20 mM KCl) was mixed with 10 µL of 200 µM compound solution in 2x reaction buffer (40 mM HEPES/KOH pH 7.5, 20 mM KCl, 10 mM MgCl2, 40 mM Na2MoO4, Triton-X 100 0.2%), 6 mM ATP, 2% DMSO, resulting […] Samples for binding control (3 mM ATP, final concentration) and non-binding control (no ATP) were prepared in the same manner without compounds. The samples were incubated for 15 min at 30 °C prior to measurement.

The subject of assay [3] is HSP90 - Sba1/p23 binding. The following applies: according to literature; cited from earlier work.
The target of assay [4] is human HSP90β–p23 complex. Details: method as in PMID 16403413. The note with it: read-out: Kd, binding to human HSP90β–p23 complex; cited from earlier work.
Assay [5] has as its target human HSP90β. Details: method as in earlier work. The note with it: 25 °C; ref 37 (McLaughlin et al.); read-out: Kd, binding to human HSP90β; cited from earlier work.
Assay [6] addresses T2, C. albicans HSP90-mNeonGreen (Candida albicans, UniProt P46598).
T2 construct: made in house; host or cells: E. coli BL21(DE3)
Description: Microscale thermophoresis, AMP-PNP binding. The following applies: 50 nM HSP90-mNeonGreen, 25 °C, error of the fit; read-out: Kd, binding to C. albicans HSP90-mNeonGreen (MST). As to the method: HSP90-mNeonGreen (C. albicans) or mNeonGreen serving as the negative control was adjusted to 100 nM with Sba1 buffer (40 mM HEPES/KOH pH 7.5, 20 mM KCl). The ligand AMP-PNP was dissolved in 2x reaction buffer (40 mM HEPES/KOH pH 7.5, 20 mM KCl, 10 mM MgCl2, 40 mM Na2MoO4, 0.2% Triton-X 100), and a series of 16 1:1 dilutions was prepared using the same buffer, producing ligand concentrations ranging from […] to […]. For the measurement, each ligand dilution was mixed with one volume of HSP90-mNeonGreen or mNeonGreen, which led to a final concentration of 50 nM and final ligand concentrations ranging from 153 nM to […]. After 5 min incubation at room temperature, the samples were loaded into Monolith NT.115 Capillaries (NanoTemper Technologies, Munich, Germany). MST was measured using a Monolith NT.115 at an ambient temperature of 25 °C. Instrument parameters were adjusted to 35% LED power and a high MST power of 80%. Data of three independently pipetted measurements were analyzed (MO.Affinity Analysis software version 2.1.3, NanoTemper Technologies, Munich, Germany) using the signal from an MST-on time of 30 s.
On the technique in general: Microscale thermophoresis detects binding through changes in fluorescence in a small temperature gradient.

Assay [7] concerns the target T3, human HSP90α–p23 binding (Homo sapiens, UniProt P07900).
T3 construct: made in house; host or cells: E. coli Rosetta2(DE3) pLysS
Description: FRET inhibitor screening assay, human HSP90α-p23 binding. The following applies: 10 or 100 µM, triplicates, 3 mM ATP, 1% DMSO, 15 min 37 °C. An excerpt: We used the Z′ factor (Z′) to optimize the FRET assays for screening purposes. Z′ represents a simple statistical parameter for the quality assessment and optimization of HTS assays and screening assays in general. It is a measure that determines the degree of signal separation between binding and non-binding data sets. Calculation of the Z′ factor is based on the standard deviation of the individual data sets as well as their general signal separation. Values ≥ 0.5 can be classified as excellent for screening purposes. […] When the fluorescent fusion proteins of HSP90 and co-chaperones bind to each other, FRET occurs between donor and acceptor fluorophores, and the sensitized emission (EmFRET) signal increases. Consequently, the fluorescence intensity of the donor decreases (FLDD). […] We defined the ‘hit threshold’ as a decrease in readout signal of more than 3 standard deviations (SDs) from the mean signal of the binding control. This constitutes a common threshold for hit identification in HTS campaigns.
The excitation and emission bandwidths were set to 9 and 20 nm, respectively. Experiments for the determination of the equilibrium dissociation constants were performed with a filter-based microplate reader Infinite F200Pro (Tecan, Männedorf, Switzerland). […] The correction factors x and y were calculated as follows:(2) x=FLDA/FLDD for samples containing only the donor fluorophore or fluorescent fusion proteins with mNeonGreen and (3) y=FLDA/FLAA for samples containing only the acceptor fluorophore or fluorescent fusion proteins with mScarlet-I in the same concentration as samples containing both the donor and acceptor.
For screening for the identification of ATP-competitive C. albicans HSP90 and HSP90-Sba1 binding inhibitors, 10 µL of HSP90-mNeonGreen (2 µM) and Sba1-mScarlet-I (4 µM) in HEPES buffer (40 mM HEPES/KOH pH 7.5, 20 mM KCl) was mixed with 10 µL of 200 µM compound solution in 2x reaction buffer (40 mM HEPES/KOH pH 7.5, 20 mM KCl, 10 mM MgCl2, 40 mM Na2MoO4, Triton-X 100 0.2%), 6 mM ATP, 2% DMSO, resulting ultimately in constant HSP90-mNeonGreen concentrations of 1 µM and Sba1-mScarlet-I 2 µM in reaction buffer. Samples for binding control (3 mM ATP, final concentration) and non-binding control (no ATP) were prepared in the same manner without compounds. The samples were incubated for 15 min at 30 °C prior to measurement. The assay for the human HSP90α–p23 binding inhibitor identification was performed analogously, with the exception that samples were incubated for 15 min at 37 °C prior to measurement. Since binding samples show both a high EmFRET as well as a reduction in donor emission (FLDD), we calculated the quotient (EmFRET/FLDD) to derive an improved signal separation and robustness. The nucleoside-mimetics library was obtained from Enamine (catalog No. NML-320-X-20, Enamine Ltd., Kyiv, Ukraine). Z′ and Z factors were calculated based on Zhang et al..

Assay [8] addresses T4, human HSP90α-mNeonGreen–p23-mScarlet-I binding (Homo sapiens, UniProt P07900, E47A).
T4 construct: made in house; host or cells: E. coli Rosetta2(DE3) pLysS
Put plainly: FRET characterization of model inhibitors and ATP on human HSP90α-p23 binding. As to the method: (§2) In this investigation, 1 µM HSP90-mNeonGreen was incubated with 2 µM Sba1-mScarlet-I in reaction buffer containing 5 mM ATP either alone (UC) or with the addition of 20 µM Sba1. As a negative control, samples containing 20 µM bovine serum albumin (BSA) were used.
as §1
All experiments were carried out in reaction buffer (40 mM HEPES/KOH pH 7.5, 20 mM KCl, 5 mM MgCl2, 20 mM Na2MoO4, Triton-X 100 0.1%). HEPES and KCl were purchased from AppliChem, Darmstadt, Germany. KOH and MgCl2 were obtained from VWR Chemicals, Darmstadt, Germany. Na2MoO4 was from Merck, Darmstadt, Germany. Triton-X 100 was purchased from Serva, Heidelberg, Germany.
For C. albicans Sba1 competition experiments for HSP90-mNeonGreen–Sba1-mScarlet-I binding, 1 µM HSP90-mNeonGreen and 1 µM Sba1-mScarlet-I were incubated with varying concentrations of Sba1 in a range of 0–25,000 nM (lowest non-zero concentration 12 nM) in reaction buffer containing 5 mM ATP. The experiment was performed twice in nonaplicates. For human p23 competition experiments for HSP90α-mNeonGreen–p23-mScarlet-I binding, 1 µM HSP90α-mNeonGreen and 1 µM p23-mScarlet-I were incubated with varying concentrations of p23 in a range of 0–50 000 nM (lowest non-zero concentration 23 nM) in reaction buffer containing 5 mM ATP. The experiment was performed twice in hexaplicates. […] The experiment was performed thrice in triplicates. […] The IC50,rel values were calculated using the equation log (inhibitor) vs. response-variable slope (four parameters) in GraphPad Prism 5. Ki values for inhibition of HSP90-mNeonGreen–Sba1-mScarlet-I/p23-mScarlet-I binding by non-labeled Sba1/p23 were calculated with One Site—Fit Ki in GraphPad Prism 5. […] The EC50,rel values were calculated using the log (agonist) vs. response-variable slope (four parameters) equation in GraphPad Prism 5.

For assay [9], the target named is T5, C. albicans HSP90-mNeonGreen–Sba1-mScarlet-I binding (Candida albicans, UniProt P46598, E36A).
T5 construct: made in house; host or cells: E. coli BL21(DE3)
T5 sequence (P46598 whole entry, stated change not applied): as the sequence (P46598 whole entry) above
As for the experimental part:
as §2, §1
All experiments were carried out in reaction buffer (40 mM HEPES/KOH pH 7.5, 20 mM KCl, 5 mM MgCl2, 20 mM Na2MoO4, Triton-X 100 0.1%). HEPES and KCl were purchased from AppliChem, Darmstadt, Germany. […]

T2 sequence (P46598 whole entry): as the sequence (P46598 whole entry) above

Take `COc1c(C)cnc(Cn2cnc3c(Cl)nc(N)nc32)c1C` [BIIB021]: the Ki in [1] (Table S1, read-out: Ki (printed in the Kd value column)) is […]. The “hit identification (EmFRET/FLDD decrease of more than 3 SDs from binding control mean)” value in assay [2] was “reliably identified as disrupting HSP90-Sba1 binding; also recorded: reliably identified as hits”. Further, the “Influence on p23/Sba1 binding” value in [3] was “Yes”.

For `Nc1ncnc2c1ncn2[C@@H]1O[C@H](COP(=O)(O)OP(=O)(O)NP(=O)(O)O)[C@@H](O)[C@H]1O` [AMP-PNP], the Kd was 39 ± 12 µM in assay [4], 148 ± 12 µM in assay [5] and 200 ± 70 µM in [6].

As for `CC1(C)CC(=O)c2c(C(F)(F)F)nn(-c3ccc(C(N)=O)c(N[C@H]4CC[C@H](OC(=O)CN)CC4)c3)c2C1` [SNX-5422], in [1] (Table S1, according to literature), the Kd was 16 nM. Moreover, the “hit identification (EmFRET/FLDD decrease of more than 3 SDs from binding control mean)” value in [2] is reported as “reliably identified as disrupting HSP90-Sba1 binding; also recorded: reliably identified as hits”; in assay [7], “reliably identified as hits”. Also, the “Influence on p23/Sba1 binding” value in [3] is given as “Yes”.

As for `Nc1ncnc2c1ncn2[C@@H]1O[C@H](COP(=O)(O)OP(=O)(O)OP(=O)(O)O)[C@@H](O)[C@H]1O` [ATP], the “concentration at which maximum binding was reached” value in [8] (1 µM HSP90αE47A-mNeonGreen, 2 µM p23-mScarlet-I) is recorded as ~ 3 mM; in assay [9] (1 µM HSP90E36A-mNeonGreen, 2 µM Sba1-mScarlet-I) it was ~ 3 mM. In addition, the EC50 in [8] (1 µM donor, 2 µM acceptor, read-out: EC50,rel, influence on HSP90αE47A-mNeonGreen–p23-mScarlet-I binding) amounted to 210 ± 30 µM; in [9] (1 µM donor, 2 µM acceptor, ATP 0–12,500 µM, read-out: EC50,rel, influence on HSP90E36A-mNeonGreen–Sba1-mScarlet-I binding), 220 ± 40 µM.

Source of the values: publication PMC11053944, “FRET Assays for the Identification of C. albicans HSP90-Sba1 and Human HSP90α-p23 Binding Inhibitors” (Pharmaceuticals, 2024).
